From patent US11141410B2 (MERCK SHARP & DOHME CORP., priority 2015, dated 2021)

Tests used:
[1] = test system: MRSA COL (MB5393); test: TarO Inhibitor/β-Lactam Synergy Assay (growth, OD600); type: cell-based, Staphylococcus aureus; details: for MITC95 TarO inhibitor + 4 μg/mL IPM; Bacteria: SA_MB5393: in combination with 4 μg/mL imipenem (IPM); for MITC95 TarO inhibitor + 8 μg/mL DCX; Bacteria: SA_MB5393: in combination with 8 μg/mL dicloxacillin (DCX)
Outline: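 TarO inhibitors titrated 2-fold from 200 μM (2% DMSO) against MRSA COL, 5×10^5 CFU in CAMHB, with β-lactam fixed at clinical breakpoint (imipenem 4 μg/ml or dicloxacillin 8 μg/ml). Incubated 20 h at 37 °C without shaking; relative growth read as OD600.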

[2] = test system: MRSA COL (MB5393); test: as above; type: cell-based; details: Staphylococcus aureus, TarO inhibitor alone, >200 μM = 95% growth inhibition not achieved, 20 hours at 37° C., read-out: MITC95 TarO inhibitor alone, Bacteria: SA_MB5393

C[C@H]1[C@@H](c2cc(F)c(F)c(F)c2)OC(=O)N1C(=O)CCc1cncc2ccccc12 [Example 78, (4S,5R)-3-(3-isoquinolin-4-ylpropanoyl)-4-methyl-5-(3,4,5-trifluorophenyl)-1,3-oxazolidin-2-one]
MITC95 TarO inhibitor + 4 μg/mL IPM; Bacteria: SA_MB5393 [1]: 1.17 µM
IC95 [2]: > 200 µM

Cc1cc(F)cc([C@H]2OC(=O)N(C(=O)CCc3cncc4ccccc34)[C@H]2C)c1 [Example 79, (4S,5R)-5-(3-fluoro-5-methylphenyl)-3-(3-isoquinolin-4-ylpropanoyl)-4-methyl-1,3-oxazolidin-2-one]
MITC95 TarO inhibitor + 4 μg/mL IPM; Bacteria: SA_MB5393 [1]: 1.17 µM
MITC95 TarO inhibitor + 8 μg/mL DCX; Bacteria: SA_MB5393 [1]: 12.50 µM
IC95 [2]: > 200 µM

C[C@H]1[C@@H](c2cccc(F)c2)OC(=O)N1C(=O)CCc1cncc2ccccc12 [Example 80, (4S,5R)-5-(3-fluorophenyl)-3-(3-isoquinolin-4-ylpropanoyl)-4-methyl-1,3-oxazolidin-2-one]
MITC95 TarO inhibitor + 4 μg/mL IPM; Bacteria: SA_MB5393 [1]: 4.69 µM
IC95 [2]: > 200 µM

COc1cccc([C@H]2OC(=O)N(C(=O)CCc3cccc4ccccc34)[C@H]2C)n1 [Example 81, (4S,5S)-5-(6-methoxypyridin-2-yl)-4-methyl-3-(3-naphthalen-1-ylpropanoyl)-1,3-oxazolidin-2-one]
MITC95 TarO inhibitor + 4 μg/mL IPM; Bacteria: SA_MB5393 [1]: 0.75 µM
MITC95 TarO inhibitor + 8 μg/mL DCX; Bacteria: SA_MB5393 [1]: 100.00 µM
IC95 [2]: > 200 µM

C[C@H]1[C@@H](c2ccc(F)c(F)c2)OC(=O)N1C(=O)CCc1cncc2ccccc12 [Example 82, (4S,5R)-5-(3,4-difluorophenyl)-3-(3-isoquinolin-4-ylpropanoyl)-4-methyl-1,3-oxazolidin-2-one]
MITC95 TarO inhibitor + 4 μg/mL IPM; Bacteria: SA_MB5393 [1]: 9.38 µM
IC95 [2]: > 200 µM

CC[C@H]1[C@@H](c2cc(C(F)(F)F)cc(C(F)(F)F)c2)OC(=O)N1C(=O)CCc1cncc2ccccc12 [Example 83, (4S,5R)-5-[3,5-bis(trifluoromethyl)phenyl]-4-ethyl-3-(3-isoquinolin-4-ylpropanoyl)-1,3-oxazolidin-2-one]
MITC95 TarO inhibitor + 4 μg/mL IPM; Bacteria: SA_MB5393 [1]: 0.06 µM
MITC95 TarO inhibitor + 8 μg/mL DCX; Bacteria: SA_MB5393 [1]: 0.59 µM
IC95 [2]: > 200 µM

C[C@H]1[C@@H](c2cccc(Br)n2)OC(=O)N1C(=O)CCc1cccc2ccccc12 [Example 84, (4S,5S)-5-(6-bromopyridin-2-yl)-4-methyl-3-(3-naphthalen-1-ylpropanoyl)-1,3-oxazolidin-2-one]
MITC95 TarO inhibitor + 4 μg/mL IPM; Bacteria: SA_MB5393 [1]: 1.56 µM
MITC95 TarO inhibitor + 8 μg/mL DCX; Bacteria: SA_MB5393 [1]: 100 µM
IC95 [2]: > 200 µM

O=C(CCc1cncc2ccccc12)N1C[C@H](c2cc(C(F)(F)F)cc(C(F)(F)F)c2)OC1=O [Example 85, (5S)-5-[3,5-bis(trifluoromethyl)phenyl]-3-(3-isoquinolin-4-ylpropanoyl)-1,3-oxazolidin-2-one]
MITC95 TarO inhibitor + 4 μg/mL IPM; Bacteria: SA_MB5393 [1]: 0.55 µM
MITC95 TarO inhibitor + 8 μg/mL DCX; Bacteria: SA_MB5393 [1]: 25.00 µM
IC95 [2]: > 200 µM

O=C(CCc1cncc2ccccc12)N1CC(c2cccc(F)c2F)OC1=O (stereo not shown) [Example 86, 5-(2,3-difluorophenyl)-3-(3-isoquinolin-4-ylpropanoyl)-1,3-oxazolidin-2-one]
MITC95 TarO inhibitor + 4 μg/mL IPM; Bacteria: SA_MB5393 [1]: 1.41 µM
MITC95 TarO inhibitor + 8 μg/mL DCX; Bacteria: SA_MB5393 [1]: 8.33 µM
IC95 [2]: > 200 µM

COc1cccc([C@H]2OC(=O)N(C(=O)CCc3cncc4ccccc34)[C@H]2C)c1 [Example 87, (4S,5R)-3-(3-isoquinolin-4-ylpropanoyl)-5-(3-methoxyphenyl)-4-methyl-1,3-oxazolidin-2-one]
MITC95 TarO inhibitor + 4 μg/mL IPM; Bacteria: SA_MB5393 [1]: 2.08 µM
MITC95 TarO inhibitor + 8 μg/mL DCX; Bacteria: SA_MB5393 [1]: 50 µM
IC95 [2]: > 200 µM

C[C@H]1[C@@H](c2cc(Br)cc(C(F)(F)F)c2)OC(=O)N1C(=O)CCc1cncc2ccccc12 [Example 88, (4S,5R)-5-[3-bromo-5-(trifluoromethyl)phenyl]-3-(3-isoquinolin-4-ylpropanoyl)-4-methyl-1,3-oxazolidin-2-one]
MITC95 TarO inhibitor + 4 μg/mL IPM; Bacteria: SA_MB5393 [1]: 1.30 µM
MITC95 TarO inhibitor + 8 μg/mL DCX; Bacteria: SA_MB5393 [1]: 6.25 µM
IC95 [2]: > 200 µM

C[C@H]1[C@@H](c2cc(C(F)(F)F)ccn2)OC(=O)N1C(=O)CCc1cncc2ccccc12 [Example 89, (4S,5S)-3-(3-(isoquinolin-4-yl)propanoyl)-4-methyl-5-(4-(trifluoromethyl)pyridin-2-yl)oxazolidin-2-one]
MITC95 TarO inhibitor + 4 μg/mL IPM; Bacteria: SA_MB5393 [1]: 6.25 µM
MITC95 TarO inhibitor + 8 μg/mL DCX; Bacteria: SA_MB5393 [1]: 75 µM
IC95 [2]: > 200 µM

Cc1cccc(OCC(=O)N2C(=O)O[C@H](c3cccc(C(F)(F)F)c3)[C@@H]2C)c1C [Example 90, (4S,5R)-3-(2-(2,3-dimethylphenoxy)acetyl)-4-methyl-5-(3-(trifluoromethyl)-phenyl)oxazolidin-2-one]
MITC95 TarO inhibitor + 4 μg/mL IPM; Bacteria: SA_MB5393 [1]: 0.39 µM
MITC95 TarO inhibitor + 8 μg/mL DCX; Bacteria: SA_MB5393 [1]: 12.50 µM
IC95 [2]: > 200 µM

C[C@H]1[C@@H](c2cc(C(F)(F)F)cc(C(F)(F)F)c2)OC(=O)N1C(=O)COc1cccc2ccccc12 [Example 91, (4S,5R)-5-[3,5-bis(trifluoro-methyl)phenyl]-4-methyl-3-[(naphthalen-1-yloxy)acetyl]-1,3-oxazolidin-2-one]
MITC95 TarO inhibitor + 4 μg/mL IPM; Bacteria: SA_MB5393 [1]: 0.76 µM
MITC95 TarO inhibitor + 8 μg/mL DCX; Bacteria: SA_MB5393 [1]: 4.69 µM
IC95 [2]: > 200 µM

Cc1ccc2c(n1)N(CCC(=O)N1C(=O)O[C@H](c3cc(F)cc(C(F)(F)F)c3)[C@@H]1C)CCO2 [Example 92, (4S,5R)-5-(3-fluoro-5-(trifluoromethyl)phenyl)-4-methyl-3-(3-(6-methyl-2,3-dihydro-4H-pyrido[3,2-b][1,4]oxazin-4-yl)propanoyl)oxazolidin-2-one]
MITC95 TarO inhibitor + 4 μg/mL IPM; Bacteria: SA_MB5393 [1]: 0.51 µM
MITC95 TarO inhibitor + 8 μg/mL DCX; Bacteria: SA_MB5393 [1]: 7.50 µM
IC95 [2]: > 200 µM

COc1cc([C@H]2OC(=O)N(C(=O)NCc3cncc4cccnc34)C[C@H]2C)cc(C(F)(F)F)c1 [Example 94, (5R,6S)-6-[3-methoxy-5-(trifluoromethyl)phenyl]-5-methyl-N-(1,6-naphthyridin-8-ylmethyl)-2-oxo-1,3-oxazinane-3-carboxamide]
MITC95 TarO inhibitor + 4 μg/mL IPM; Bacteria: SA_MB5393 [1]: 3.52 µM
MITC95 TarO inhibitor + 8 μg/mL DCX; Bacteria: SA_MB5393 [1]: 44 µM
IC95 [2]: > 200 µM

C[C@@H]1NN(C(=O)NCc2cncc3ccccc23)C(=O)O[C@@H]1c1cc(F)cc(C(F)(F)F)c1 [Example 95]
MITC95 TarO inhibitor + 4 μg/mL IPM; Bacteria: SA_MB5393 [1]: 5.21 µM
MITC95 TarO inhibitor + 8 μg/mL DCX; Bacteria: SA_MB5393 [1]: 4.17 µM
IC95 [2]: > 200 µM

COc1cc(C(F)(F)F)nc([C@@H]2OC(=O)N(C(=O)NCc3cncc4ccccc34)[C@H]2C)n1 [Example 96, (4S,5R)—N-(isoquinolin-4-ylmethyl)-5-(4-methoxy-6-(trifluoromethyl)pyrimidin-2-yl)-4-methyl-2-oxooxazolidine-3-carboxamide]
MITC95 TarO inhibitor + 4 μg/mL IPM; Bacteria: SA_MB5393 [1]: 4.17 µM
MITC95 TarO inhibitor + 8 μg/mL DCX; Bacteria: SA_MB5393 [1]: 25 µM
IC95 [2]: > 200 µM

C[C@H]1[C@@H](c2cc(N3CCC(F)(F)C3)cc(C(F)(F)F)c2)OC(=O)N1C(=O)NCc1cccc2cncnc12 [Example 97, (4S,5R)-5-(3-(3,3-difluoropyrrolidin-1-yl)-5-(trifluoromethyl)phenyl)-4-methyl-2-oxo-N-(quinazolin-8-ylmethyl)oxazolidine-3-carboxamide]
MITC95 TarO inhibitor + 4 μg/mL IPM; Bacteria: SA_MB5393 [1]: 0.42 µM
MITC95 TarO inhibitor + 8 μg/mL DCX; Bacteria: SA_MB5393 [1]: 3.32 µM
IC95 [2]: > 200 µM

C[C@H]1[C@@H](c2cc(N(C)C)cc(C(F)(F)F)c2)OC(=O)N1C(=O)NCc1cncc2ccccc12 [Example 98, (4S,5R)-5-[3-(dimethylamino)-5-(trifluoromethyl)phenyl]-N-(isoquinolin-4-ylmethyl)-4-methyl-2-oxo-1,3-oxazolidine-3-carboxamide]
MITC95 TarO inhibitor + 4 μg/mL IPM; Bacteria: SA_MB5393 [1]: 0.01 µM
MITC95 TarO inhibitor + 8 μg/mL DCX; Bacteria: SA_MB5393 [1]: 0.41 µM
IC95 [2]: > 200 µM

O=C(NCc1cncc2ccccc12)N1C(=O)O[C@H](c2cc(F)cc(C(F)(F)F)c2)[C@@H]1CCO [Example 99, (4S,5R)-5-(3-fluoro-5-(trifluoromethyl)phenyl)-4-(2-hydroxyethyl)-N-(isoquinolin-4-ylmethyl)-2-oxooxazolidine-3-carboxamide]
MITC95 TarO inhibitor + 4 μg/mL IPM; Bacteria: SA_MB5393 [1]: 18.75 µM
MITC95 TarO inhibitor + 8 μg/mL DCX; Bacteria: SA_MB5393 [1]: 100 µM
IC95 [2]: > 200 µM

C[C@H]1[C@@H](c2cc(C(F)(F)F)cc(C(F)(F)F)c2)OC(=O)N1C(=O)/C=C/c1cncc2ccccc12 [Example 100, (4S,5R)-5-(3,5-bis(trifluoromethyl)phenyl)-3-((E)-3-(isoquinolin-4-yl)acryloyl)-4-methyloxazolidin-2-one]
MITC95 TarO inhibitor + 4 μg/mL IPM; Bacteria: SA_MB5393 [1]: 1.60 µM
IC95 [2]: > 200 µM

O=C(CCc1cncc2ccccc12)N1C(=O)O[C@H](c2cc(C(F)(F)F)cc(C(F)(F)F)c2)C12CC2 [Example 101, (R)-7-(3,5-bis(trifluoromethyl)phenyl)-4-(3-(isoquinolin-4-yl)propanoyl)-6-oxa-4-azaspiro[2.4]heptan-5-one]
MITC95 TarO inhibitor + 4 μg/mL IPM; Bacteria: SA_MB5393 [1]: 0.20 µM
IC95 [2]: > 200 µM
